Assay results taken from patent US9006244B2, “Liver X receptor modulators” (priority 2012, dated 2015).

Key:
[1] = molecular target: LXRα ligand binding domain (LBD) (Homo sapiens (Human), UniProt Q13133); assay: LXR α radioligand binding assay (SPA, [3H]TO901317 competition)
Method: (§1) Poly-lysine SPA beads (50 μg) were added to each well and the total volume was adjusted to 120 μL. The plates were shaken on an orbital shaker for 20 min and then allowed to settle for 10 more minutes at rt before a brief centrifugation at 2,000 rpm for 1 min.

LXRα = LXRα (Homo sapiens (Human), UniProt Q13133); assay: LXR luciferase transcriptional reporter gene assay, Gal4-LXRα LBD in HEK293 cells; type: cell-based; settings: pG5-Luc luciferase reporter, 16 h, read-out: LXRα CELL EC50
Method: (§2) The LXR luciferase transcriptional reporter gene assay measures the ability of LXR ligands to promote transcriptional activation via the ligand binding domain (LBD) of LXR. […] 90% confluent cells from a 150 mm dish were seeded in six 100 mm dishes. The cells were batch-transfected with an expression plasmid containing the Gal4 DNA binding domain fused to either the LBD of LXRα or LXRβ and a luciferase reporter plasmid pG5-Luc (Promega, Madison, Wis.), which has Gal4 response elements upstream of firefly luciferase gene (luc+). […] Five h following transfection, 15 mL of 10% charcoal-treated FBS (Hyclone, #SH30070.03) in DMEM were added to the transfected dishes without removing transfection media, and then incubate the cells at 37° C. overnight. The next day, the cells from the transfected dish were trypsinized, washed with PBS, resuspended in 10% charcoal-treated DMEM media and plated into 96-well plates with 60,000 cells/100 μL per well. The cells were incubated at 37° C. for ˜4 h before addition of 100 μL of test compound or control ligand at different concentrations (final DMSO concentration at 0.2%). Following incubation of the cells for 16 h with substances, the culture media were dumped and Bright-Glo™ luciferase reagent (Promega, Cat. #E2610) was added to lyse the cells and initiate the luciferase reaction. Luminescence, as a measure of luciferase activity, was detected in a plate reader (Victor2, PE-Wallac). Transcriptional activation in the presence of a test substance was expressed as fold-change in luminescence compared to that of cells incubated in the absence of the substance. EC50 values were calculated using the XLfit™ program (IDBS, Guilford, UK).

[2] = molecular target: LXRβ ligand binding domain (LBD) (Homo sapiens (Human), UniProt P55055); assay: LXR β radioligand binding assay (SPA, [3H]TO901317 competition); settings: for selectivity for the LXRβ subtype over the LXRα subtype: LXRβ versus LXRα, statement in the summary
Method: as §1

LXRβ = LXRβ (Homo sapiens (Human), UniProt P55055); assay: LXR luciferase transcriptional reporter gene assay, Gal4-LXRβ LBD in HEK293 cells; type: cell-based; settings: pG5-Luc luciferase reporter, 16 h, read-out: LXRβ CELL EC50
LXRβ, sequence (P55055 222-460): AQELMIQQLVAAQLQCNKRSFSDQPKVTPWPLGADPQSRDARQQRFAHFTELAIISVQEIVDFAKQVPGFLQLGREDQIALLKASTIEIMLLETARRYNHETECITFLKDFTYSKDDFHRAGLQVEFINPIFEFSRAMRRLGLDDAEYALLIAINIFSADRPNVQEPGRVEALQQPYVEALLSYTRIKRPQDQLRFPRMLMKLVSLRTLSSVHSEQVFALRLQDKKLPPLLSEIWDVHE
Method: as §2

LXRβ ligand binding domain (LBD), sequence (P55055 222-460): as above
LXRα ligand binding domain (LBD), sequence (Q13133 209-447): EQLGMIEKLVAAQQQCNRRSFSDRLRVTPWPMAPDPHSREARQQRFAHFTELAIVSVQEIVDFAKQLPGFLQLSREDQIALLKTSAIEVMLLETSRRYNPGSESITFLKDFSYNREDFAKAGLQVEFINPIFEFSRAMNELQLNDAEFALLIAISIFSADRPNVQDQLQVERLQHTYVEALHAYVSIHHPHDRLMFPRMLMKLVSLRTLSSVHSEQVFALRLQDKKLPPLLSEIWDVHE
LXRα, sequence (Q13133 209-447): as above

CC(C)[C@H]1c2nc3cc(CO)c(S(C)(=O)=O)cc3n2CCN1c1nccc(C(F)(F)F)n1 (single isomer, unassigned) [Compound E2b]
Ki [1]: > 3.33 µM | EC50 (LXRα): 17.3 µM | Ki [2]: > 2.5 µM | EC50 (LXRβ): 6.94 µM

CC(C)[C@@H]1c2cc3cc(CO)c(S(C)(=O)=O)cc3n2CCN1c1nccc(C(F)(F)F)n1 (single isomer, unassigned) [Compound E4a, (1-isopropyl-7-(methylsulfonyl)-2-(4-(trifluoromethyl)pyrimidin-2-yl)-1,2,3,4-tetrahydropyrazino[1,2-a]indol-8-yl)methanol]
Ki [1]: 0.043 µM | EC50 (LXRα): 0.163 µM | Ki [2]: 0.004 µM | selectivity for the LXRβ subtype over the LXRα subtype [2]: selective for the LXRβ subtype over the LXRα subtype | EC50 (LXRβ): 0.01 µM

CC(C)[C@H]1c2cc3ccc(S(C)(=O)=O)cc3n2CCN1c1nccc(C(F)(F)F)n1 (single isomer, unassigned) [Compound E3b, 1-isopropyl-7-(methylsulfonyl)-2-(4-(trifluoromethyl)pyrimidin-2-yl)-1,2,3,4-tetrahydropyrazino[1,2-a]indole]
Ki [1]: > 3.33 µM | EC50 (LXRα): > 20 µM

CC(C)C1c2nc3ccc(S(C)(=O)=O)cc3n2CCN1c1nccc(C(F)(F)F)n1 (centres unmarked) [Compound E1, 1-isopropyl-7-(methylsulfonyl)-2-(4-(trifluoromethyl)pyrimidin-2-yl)-1,2,3,4-tetrahydrobenzo[4,5]imidazo[1,2-a]pyrazine]
Ki [1]: 1.77 µM | EC50 (LXRα): 3.37 µM | Ki [2]: 0.256 µM | EC50 (LXRβ): 0.313 µM

CC(C)[C@H]1c2cc3cc(CO)c(S(C)(=O)=O)cc3n2CCN1c1nccc(C(F)(F)F)n1 (single isomer, unassigned) [Compound E4b, (1-isopropyl-7-(methylsulfonyl)-2-(4-(trifluoromethyl)pyrimidin-2-yl)-1,2,3,4-tetrahydropyrazino[1,2-a]indol-8-yl)methanol]
Ki [1]: > 3.33 µM | EC50 (LXRα): > 20 µM | Ki [2]: 0.846 µM | EC50 (LXRβ): > 20 µM

CC(C)[C@@H]1c2cc3ccc(S(C)(=O)=O)cc3n2CCN1c1nccc(C(F)(F)F)n1 (single isomer, unassigned) [Compound E3a, 1-isopropyl-7-(methylsulfonyl)-2-(4-(trifluoromethyl)pyrimidin-2-yl)-1,2,3,4-tetrahydropyrazino[1,2-a]indole]
Ki [1]: 0.398 µM | EC50 (LXRα): 1.1 µM

CC(C)[C@@H]1c2nc3cc(CO)c(S(C)(=O)=O)cc3n2CCN1c1nccc(C(F)(F)F)n1 (single isomer, unassigned) [Compound E2a]
Ki [1]: 0.318 µM | EC50 (LXRα): 0.34 µM | Ki [2]: 0.02 µM | selectivity for the LXRβ subtype over the LXRα subtype [2]: selective for the LXRβ subtype over the LXRα subtype | EC50 (LXRβ): 0.013 µM
